pIC50: −log10 of the molar value.
Biological target: Mineralocorticoid receptor (Homo sapiens, UniProt P08235, C808S)
Assay: Binding affinity to N-terminal 6His-GST-tagged human MR LBD (727 to 984 residues) harboring C808S mutation expressed in Escherichia coli BL21DE3/corticosterone complex by AlphaScreen assay

Sequence of Mineralocorticoid receptor (P08235 whole entry C808S, the tested form may be a part): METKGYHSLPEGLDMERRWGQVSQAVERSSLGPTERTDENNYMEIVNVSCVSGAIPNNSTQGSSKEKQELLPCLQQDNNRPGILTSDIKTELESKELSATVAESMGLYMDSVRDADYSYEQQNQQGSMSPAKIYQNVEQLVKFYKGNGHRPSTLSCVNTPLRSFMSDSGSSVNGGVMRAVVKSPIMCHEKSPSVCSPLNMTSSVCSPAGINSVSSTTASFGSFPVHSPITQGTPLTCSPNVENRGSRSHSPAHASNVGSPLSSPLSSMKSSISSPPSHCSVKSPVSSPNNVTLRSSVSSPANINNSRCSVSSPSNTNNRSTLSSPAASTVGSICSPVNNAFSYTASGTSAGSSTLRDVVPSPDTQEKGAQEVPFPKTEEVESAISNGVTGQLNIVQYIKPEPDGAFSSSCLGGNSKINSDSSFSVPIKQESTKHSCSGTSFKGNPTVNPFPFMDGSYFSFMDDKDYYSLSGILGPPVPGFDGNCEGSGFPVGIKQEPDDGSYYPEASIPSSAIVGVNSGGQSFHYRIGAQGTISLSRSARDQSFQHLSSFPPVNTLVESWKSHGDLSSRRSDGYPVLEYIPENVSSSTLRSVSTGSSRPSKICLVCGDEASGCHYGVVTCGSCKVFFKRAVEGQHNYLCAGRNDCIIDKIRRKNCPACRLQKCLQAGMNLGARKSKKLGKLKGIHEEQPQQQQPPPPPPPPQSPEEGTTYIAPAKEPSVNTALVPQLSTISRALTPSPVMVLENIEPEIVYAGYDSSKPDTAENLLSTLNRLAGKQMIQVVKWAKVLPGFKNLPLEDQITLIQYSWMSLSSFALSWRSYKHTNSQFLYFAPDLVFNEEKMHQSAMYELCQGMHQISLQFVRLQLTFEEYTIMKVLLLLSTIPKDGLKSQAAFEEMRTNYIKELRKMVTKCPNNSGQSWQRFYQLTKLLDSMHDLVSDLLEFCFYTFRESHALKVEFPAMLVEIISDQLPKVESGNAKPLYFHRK

Row | pIC50 | Compound
1 | 5.96 | CC(C)C[C@H](NC(=O)[C@H](CC(C)C)NC(=O)[C@H](CCC(=O)O)NC(=O)[C@H](CO)NC(=O)[C@H](CS)NC(=O)[C@@H]1CCCN1C(=O)[C@H](CCCNC(=N)N)NC(=O)[C@@H](N)CCCNC(=N)N)C(=O)N[C@@H](CCCCN)C(=O)N[C@@H](Cc1ccc(O)cc1)C(=O)N[C@@H](CC(C)C)C(=O)N[C@H](C(=O)N[C@H](C(=O)N[C@@H](CC(N)=O)C(=O)N[C@@H](CC(=O)O)C(=O)O)[C@H](C)O)[C@H](C)O
2 | 5.85 | H-KENNALLRYLLDRDD-OH
3 | 5.34 | H-QEKHRILHKLLQNGN-OH

Row | Compound | pIC50
4 | CC(C)C[C@H](NC(=O)[C@H](CO)NC(=O)[C@H](CCCCN)NC(=O)[C@H](CCC(N)=O)NC(=O)[C@H](CCC(N)=O)NC(=O)[C@H](C)N)C(=O)N[C@@H](CC(C)C)C(=O)N[C@@H](CCC(N)=O)C(=O)N[C@@H](CCC(N)=O)C(=O)N[C@@H](CC(C)C)C(=O)N[C@@H](CC(C)C)C(=O)N[C@H](C(=O)N[C@@H](CCC(=O)O)C(=O)O)[C@@H](C)O | 6.05
